This is an account of results in patent publication US11452725B2, “Chiral diaryl macrocycles and uses thereof” (TURNING POINT THERAPEUTICS, INC., priority 2015, dated 2022).

Each structure is given as a SMILES string. “Also recorded” adds a separate entry of the source.

One assay concerns the target T1, TYK2 (Homo sapiens, UniProt P29597).
T1 construct: purchased Reaction Biology Corporation (contract assay)
Briefly: Biochemical kinase assay (Reaction Biology). The note with it: 10 μM ATP.

The target in the next assay is T2, PLK4 (Homo sapiens, UniProt O00444).
T2 construct: purchased Reaction Biology Corporation (contract assay)
Briefly: Biochemical kinase assay (Reaction Biology). As to conditions: 10 μM ATP.

The next assay relates to AKT. Briefly: Immunoblotting downstream signaling, HCC78 cells. The note with it: Homo sapiens; HCC78 cell line; read-out: downstream AKT phosphorylation IC50. Format: cell-based. As for the experimental part: (§1) NSCLC cell line H2228 (harboring endogenous EML4-ALK fusion gene), HCC78 cells (harboring endogenous SLC34A2-ROS1 fusion gene), Karpas-299 cells (harboring endogenous NPM-ALK fusion gene) or SET-2 (harboring endogenous JAK2V617F activating mutation) were cultured in RPMI medium, and KM12 (harboring endogenous TPM3-TRKA fusion gene) cell line was cultured in DMEM medium, both supplemented with 10% fetal bovine serum and 100 U/mL of penicillin/streptomycin. Ba/F3 and NIH3T3 cells stably expressing ALK or ROS1 (WT or mutant) were culture as mentioned above. […] Protein lysates (approximately 20 μg) was resolved on 4-12% Bolt Bis-Tris precasted gels with MES running buffer (Life Technologies), transferred to nitrocellulose membranes using Trans-Blot Turbo Transfer System (Bio-Rad) and detected with antibodies targeting phosphorylated ALK Y1604 (Cell Signaling Technology), total ALK (Cell Signaling Technology), phosphorylated ROS1 and total ROS1 (Cell Signaling Technology), phosphorylated TRK A/B (Cell Signaling Technology), total TRKA antibody (Santa Cruz Biotechnology), phosphorylated STAT3 and STAT5, total STAT3 and STAT5 (Cell Signaling Technology), phosphorylated AKT (Cell Signaling Technology), total AKT (Cell Signaling Technology), phosphorylated ERK (Cell Signaling Technology), total ERK (Cell Signaling Technology) and Tubulin (Sigma). […]
In general terms: A western blot detects proteins with antibodies after separation by electrophoresis.

For the next assay, the system named is STAT3. Briefly: Immunoblotting downstream signaling, HCC78 cells. The format is cell-based. The note with it: Homo sapiens; HCC78 cell line; read-out: downstream STAT3 phosphorylation IC50. As for the experimental part: as §1
In a further assay the target is T3, PYK2 (Homo sapiens, UniProt Q14289).
T3 construct: purchased Reaction Biology Corporation (contract assay)
Briefly: Biochemical kinase assay (Reaction Biology). As to conditions: 10 μM ATP.

For a further assay, the system named is SET-2 cell line. Briefly: Cell proliferation assay (CellTiter-Glo). Format: cell-based. The note with it: Homo sapiens, 72 hours, JAK2 V617F mutation. On the technique in general: Cellular ATP, detected with luciferase, serves as a proxy for viable cell number.
The next assay deals with T4, DDR2 (Homo sapiens, UniProt Q16832).
T4 construct: purchased Reaction Biology Corporation (contract assay)
Briefly: Biochemical kinase assay (Reaction Biology). As to conditions: 10 μM ATP.

The next assay relates to CD44. Briefly: CD44 expression by immunoblotting in H2228 cells. As to conditions: 48 hours treatment, 0-1000 nM. The format is cell-based, human. As for the experimental part: (§2) NSCLC cell line H2228 (harboring endogenous EML4-ALK fusion gene) was cultured in RPMI medium supplemented with 10% fetal bovine serum and 100 U/mL of penicillin/streptomycin. Ba/F3 and NIH3T3 cells stably expressing ROS1, or TRKA, or TRKB, or TRKC (WT or mutant) were cultured as mentioned above. […] Cells were collected after treatment and lysed in RIPA buffer (50 mM Tris, pH 7.4, 150 mM NaCl, 1% NP-40, 0.5% Deoxycholate, 0.1% SDS) supplemented with 10 mM EDTA, 1× Halt protease and phosphatase inhibitors (Thermo Scientific). Protein lysates (approximately 20 μg) was resolved on 4-12% Bolt Bis-Tris precasted gels with MES running buffer (Life Technologies), transferred to nitrocellulose membranes using Trans-Blot Turbo Transfer System (Bio-Rad) and detected with antibodies targeting phosphorylated phosphorylated ROS1 and total ROS1 (Cell Signaling Technology), phosphorylated TRK A/B (Cell Signaling Technology), total TRKA antibody (Santa Cruz Biotechnology), phosphorylated SRC Y416 (Cell Signaling Technology), total SRC (Cell Signaling Technology), phosphorylated FAK Y576/577 (Cell Signaling Technology), total FAK (Cell Signaling Technology), phosphorylated paxillin Y118 (Cell Signaling Technology), total paxillin (Cell Signaling Technology), phosphorylated EGFR and total EGFR, CD44, and Tubulin (Sigma). […]

In another assay the target is FAK (Homo sapiens, UniProt Q05397). Briefly: Immunoblotting cellular kinase phosphorylation assay, NCI-H2228 cells. Format: cell-based. As to conditions: 4 hours treatment; read-out: FAK phosphorylation of NCI-H2228 cell line IC50. As for the experimental part:
as §2

Assay [1] concerns Ba/F3 EML4-ALK G1202R cell line. Briefly: Cell proliferation assay (CellTiter-Glo). Format: cell-based. As to conditions: Mus musculus, 72 hours.
Assay [2] has as its system Ba/F3 CD74-ROS1 G2032R cell line. Briefly: Cell proliferation assay (CellTiter-Glo). Format: cell-based. As to conditions: Mus musculus, BaF3; 72 hours.
A further assay has as its target T5, AXL (Homo sapiens, UniProt P30530).
T5 construct: purchased Reaction Biology Corporation (contract assay)
Briefly: Biochemical kinase assay (Reaction Biology). As to conditions: 10 μM ATP.

The test system of assay [3] is Ba/F3 CD74-ROS1 L2026M cell line. Briefly: Cell proliferation assay (CellTiter-Glo). Format: cell-based. As to conditions: Mus musculus, BaF3, 72 h, read-out: Cell proliferation of Ba/F3 CD74-ROS1 L2026M cell line IC50.
Another assay deals with T6, FGR (Homo sapiens, UniProt P09769).
T6 construct: purchased Reaction Biology Corporation
Briefly: Biochemical kinase assay (Reaction Biology). The note with it: 10 μM ATP.

In assay [4] the test system is Ba/F3 EML4-ALK L1196M cell line. Briefly: Cell proliferation assay (CellTiter-Glo). The format is cell-based. As to conditions: Mus musculus, 72 hours.

T4 sequence (Q16832 22-855): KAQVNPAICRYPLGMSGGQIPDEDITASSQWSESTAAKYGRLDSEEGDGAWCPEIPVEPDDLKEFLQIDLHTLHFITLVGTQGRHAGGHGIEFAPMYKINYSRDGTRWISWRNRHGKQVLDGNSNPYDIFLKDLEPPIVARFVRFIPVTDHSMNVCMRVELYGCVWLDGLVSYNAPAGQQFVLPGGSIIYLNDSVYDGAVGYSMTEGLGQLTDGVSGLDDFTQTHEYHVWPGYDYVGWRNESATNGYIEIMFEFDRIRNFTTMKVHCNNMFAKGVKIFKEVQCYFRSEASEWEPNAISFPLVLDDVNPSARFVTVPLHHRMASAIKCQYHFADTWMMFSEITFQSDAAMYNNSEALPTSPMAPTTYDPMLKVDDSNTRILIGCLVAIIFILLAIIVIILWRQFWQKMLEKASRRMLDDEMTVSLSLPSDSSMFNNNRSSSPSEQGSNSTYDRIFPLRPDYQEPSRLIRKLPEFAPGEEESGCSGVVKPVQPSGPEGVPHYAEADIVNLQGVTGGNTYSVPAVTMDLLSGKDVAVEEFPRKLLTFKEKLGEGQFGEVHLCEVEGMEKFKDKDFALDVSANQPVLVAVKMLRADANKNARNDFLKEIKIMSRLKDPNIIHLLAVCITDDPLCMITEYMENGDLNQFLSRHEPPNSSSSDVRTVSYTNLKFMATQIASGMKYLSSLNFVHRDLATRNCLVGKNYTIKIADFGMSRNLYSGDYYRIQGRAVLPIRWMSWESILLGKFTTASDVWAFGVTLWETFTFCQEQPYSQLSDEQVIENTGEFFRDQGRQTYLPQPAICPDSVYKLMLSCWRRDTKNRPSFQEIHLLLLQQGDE
T6 sequence (P09769 whole entry): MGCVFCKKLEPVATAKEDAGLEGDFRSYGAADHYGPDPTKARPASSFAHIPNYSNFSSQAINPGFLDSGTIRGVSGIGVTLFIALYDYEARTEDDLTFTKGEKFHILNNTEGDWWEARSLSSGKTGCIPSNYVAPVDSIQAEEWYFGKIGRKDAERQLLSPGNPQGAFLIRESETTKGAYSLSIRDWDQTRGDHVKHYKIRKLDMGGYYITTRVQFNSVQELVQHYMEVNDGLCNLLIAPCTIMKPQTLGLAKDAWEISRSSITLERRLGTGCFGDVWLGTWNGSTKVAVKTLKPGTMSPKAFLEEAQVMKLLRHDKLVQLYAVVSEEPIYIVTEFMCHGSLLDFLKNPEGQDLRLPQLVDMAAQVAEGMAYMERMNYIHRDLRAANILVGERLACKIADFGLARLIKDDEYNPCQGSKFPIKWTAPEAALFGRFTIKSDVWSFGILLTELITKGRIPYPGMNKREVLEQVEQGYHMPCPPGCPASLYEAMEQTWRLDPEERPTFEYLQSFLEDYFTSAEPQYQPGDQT
T3 sequence (Q14289 whole entry): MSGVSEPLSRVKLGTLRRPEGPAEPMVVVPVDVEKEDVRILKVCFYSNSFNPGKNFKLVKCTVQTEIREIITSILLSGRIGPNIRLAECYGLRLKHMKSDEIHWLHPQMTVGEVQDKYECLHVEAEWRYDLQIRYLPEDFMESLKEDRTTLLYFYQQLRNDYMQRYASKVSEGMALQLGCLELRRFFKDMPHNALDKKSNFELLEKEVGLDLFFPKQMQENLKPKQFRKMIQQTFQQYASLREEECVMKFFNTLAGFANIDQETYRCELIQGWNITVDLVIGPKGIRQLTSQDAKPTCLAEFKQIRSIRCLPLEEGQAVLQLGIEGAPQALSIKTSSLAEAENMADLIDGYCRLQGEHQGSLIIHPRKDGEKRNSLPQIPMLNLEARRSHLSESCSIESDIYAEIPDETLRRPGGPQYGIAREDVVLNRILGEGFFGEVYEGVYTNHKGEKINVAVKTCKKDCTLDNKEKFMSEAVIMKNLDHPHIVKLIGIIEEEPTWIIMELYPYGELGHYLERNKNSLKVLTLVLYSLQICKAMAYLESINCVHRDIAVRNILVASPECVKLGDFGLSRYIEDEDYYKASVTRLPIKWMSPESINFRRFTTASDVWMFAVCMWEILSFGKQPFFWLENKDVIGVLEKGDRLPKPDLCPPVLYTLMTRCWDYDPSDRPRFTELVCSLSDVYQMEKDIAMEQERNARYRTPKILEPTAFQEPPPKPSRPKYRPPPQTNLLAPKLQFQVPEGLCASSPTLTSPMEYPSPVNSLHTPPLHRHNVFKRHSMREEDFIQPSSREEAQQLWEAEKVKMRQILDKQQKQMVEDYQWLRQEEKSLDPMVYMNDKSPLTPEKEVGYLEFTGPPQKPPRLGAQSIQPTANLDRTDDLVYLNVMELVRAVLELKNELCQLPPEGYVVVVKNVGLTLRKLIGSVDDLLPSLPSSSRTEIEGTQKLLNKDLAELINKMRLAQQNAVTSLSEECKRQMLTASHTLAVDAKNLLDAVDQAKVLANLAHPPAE
T5 sequence (P30530 26-894): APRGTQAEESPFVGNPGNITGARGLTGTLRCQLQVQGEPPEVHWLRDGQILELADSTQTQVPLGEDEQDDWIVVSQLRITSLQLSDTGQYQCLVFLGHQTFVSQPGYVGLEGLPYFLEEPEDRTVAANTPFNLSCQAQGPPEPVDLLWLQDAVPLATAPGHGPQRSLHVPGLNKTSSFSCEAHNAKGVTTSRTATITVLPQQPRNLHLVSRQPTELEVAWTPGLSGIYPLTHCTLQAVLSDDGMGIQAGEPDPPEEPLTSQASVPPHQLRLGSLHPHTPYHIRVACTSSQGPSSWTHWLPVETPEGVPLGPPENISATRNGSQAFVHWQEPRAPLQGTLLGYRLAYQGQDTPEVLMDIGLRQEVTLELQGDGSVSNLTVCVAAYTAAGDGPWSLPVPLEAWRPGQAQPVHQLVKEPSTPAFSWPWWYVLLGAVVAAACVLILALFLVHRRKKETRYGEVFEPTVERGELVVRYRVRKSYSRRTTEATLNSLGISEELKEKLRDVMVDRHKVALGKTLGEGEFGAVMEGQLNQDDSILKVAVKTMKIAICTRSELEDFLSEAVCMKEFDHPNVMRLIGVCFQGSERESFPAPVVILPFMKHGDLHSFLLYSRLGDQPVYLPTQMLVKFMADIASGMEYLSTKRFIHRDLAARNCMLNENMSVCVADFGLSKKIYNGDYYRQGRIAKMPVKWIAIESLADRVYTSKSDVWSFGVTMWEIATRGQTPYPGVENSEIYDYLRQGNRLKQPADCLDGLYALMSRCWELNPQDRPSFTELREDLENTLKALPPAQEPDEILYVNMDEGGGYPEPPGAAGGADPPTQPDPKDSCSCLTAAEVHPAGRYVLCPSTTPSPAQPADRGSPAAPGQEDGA
T1 sequence (P29597 whole entry): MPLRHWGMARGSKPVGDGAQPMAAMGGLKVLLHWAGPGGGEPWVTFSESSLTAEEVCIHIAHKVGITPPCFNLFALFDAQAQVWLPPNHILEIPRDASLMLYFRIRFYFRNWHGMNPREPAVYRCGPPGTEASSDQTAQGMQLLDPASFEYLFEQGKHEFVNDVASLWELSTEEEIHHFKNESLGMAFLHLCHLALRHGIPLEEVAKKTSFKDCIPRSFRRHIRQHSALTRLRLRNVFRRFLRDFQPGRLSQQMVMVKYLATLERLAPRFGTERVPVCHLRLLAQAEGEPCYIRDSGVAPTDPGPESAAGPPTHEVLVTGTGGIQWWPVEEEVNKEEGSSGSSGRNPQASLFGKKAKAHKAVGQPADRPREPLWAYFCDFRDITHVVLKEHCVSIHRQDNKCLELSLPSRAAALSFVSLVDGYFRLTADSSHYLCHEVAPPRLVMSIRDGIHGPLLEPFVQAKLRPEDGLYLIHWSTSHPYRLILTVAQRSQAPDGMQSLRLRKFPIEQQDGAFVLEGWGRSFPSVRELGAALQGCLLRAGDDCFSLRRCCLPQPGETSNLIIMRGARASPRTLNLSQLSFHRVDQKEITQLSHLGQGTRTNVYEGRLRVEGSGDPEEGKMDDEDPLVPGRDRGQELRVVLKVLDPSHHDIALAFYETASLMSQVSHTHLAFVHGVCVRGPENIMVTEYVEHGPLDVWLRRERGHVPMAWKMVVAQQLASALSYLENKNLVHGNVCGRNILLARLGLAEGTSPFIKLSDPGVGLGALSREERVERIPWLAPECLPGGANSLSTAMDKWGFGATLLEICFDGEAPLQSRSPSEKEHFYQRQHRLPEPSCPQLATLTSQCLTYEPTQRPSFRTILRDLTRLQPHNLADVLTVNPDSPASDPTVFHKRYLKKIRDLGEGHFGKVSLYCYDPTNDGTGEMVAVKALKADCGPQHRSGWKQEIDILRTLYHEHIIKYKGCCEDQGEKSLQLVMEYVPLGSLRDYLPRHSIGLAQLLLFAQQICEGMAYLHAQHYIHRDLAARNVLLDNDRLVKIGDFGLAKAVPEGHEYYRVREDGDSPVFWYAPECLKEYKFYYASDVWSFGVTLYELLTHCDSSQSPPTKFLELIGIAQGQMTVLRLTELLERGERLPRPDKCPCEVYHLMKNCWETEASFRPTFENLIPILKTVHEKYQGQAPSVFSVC

As for `C[C@H]1CNC(=O)c2cnn3ccc(nc23)N[C@H](C)c2cc(F)ccc2O1` [Compound 1, (7S,13R)-11-fluoro-7,13-dimethyl-6,7,13,14-tetrahydro-1,15-ethenopyrazolo[4,3-f][1,4,8,10]benzoxatriazacyclotridecin-4(5H)-one], the IC50 was 21.6 nM against TYK2; 126 nM against PLK4; 1 to 3 nM in the assay with AKT; 1 to 3 nM with STAT3; 39.9 nM against PYK2; 169 nM in the assay with SET-2 cell line. Besides, the IC50 against DDR2 stood at 23 nM; on FAK, 100 nM; in assay [1], 20.5 nM; in [2], […]; on AXL it was 149 nM; in [3], […]. Moreover, the IC50 against FGR was determined as 3.05 nM; in assay [4], 50 nM. Further, the CD44 expression level result in the assay with CD44 is on record as “down-regulates CD44 expression; also recorded: suppressed CD44 expression level in H2228 cells in a concentration-dependent manner”.
